From PubChem BioAssay AID602185 (Broad Institute, 2012)
The source made the active and inactive calls.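 How the source made its calls: active means compounds curbing yeast growth with fitted half-effect dose at most twice their top tested dose; inconclusive means flat fit at 30 to 70% inhibition, or poor fit; inactive means the rest.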

Columns and labels:
[1] = C. glabrata growth inhibition on glucose, dose response, glucose medium, OD600, dry powder (AID 602185); settings: Candida glabrata growth in glucose, OD600, 48 h, stronger effect = lower value
[2] = system: Candida glabrata growth in glucose, OD600, 48 h; experiment: as above

Oc1c(CN2CCN(c3ccccc3)CC2)cc(Cl)c2cccnc12
max activity, negative = growth inhibition ([1]; at 0.35 µM): 12.9% (inactive)

Cc1ccc(C(=O)Nc2nnc(-c3ccccc3)o2)cc1C
max activity, negative = growth inhibition ([1]; at 0.16 µM): 18.7% (inactive)

Cc1cc(C)n(-c2nc3ccccc3c(=O)n2OCC#N)n1
max activity, negative = growth inhibition ([1]; at 19.5 µM): -17.9% (inactive)

O=C(NNC(=S)Nc1ccc(Cl)c(Cl)c1)c1ccccn1
AC50 [2]: 10.1 µM

NC(=O)c1cccc(C(=O)Nc2nc(-c3ccc4c(c3)CCCC4)cs2)c1
max activity, negative = growth inhibition ([1]; at 2.6 µM): 14.1% (inactive)

O=C(Nc1nc(-c2ccc3c(c2)CCCC3)cs1)c1ccccc1
max activity, negative = growth inhibition ([1]; at 0.3 µM): 19.6% (inactive)

Cc1ccc(-c2nc3c(Cl)cc(Cl)cc3c(=O)n2O)cc1
AC50 [2]: 1.75 µM

Cc1ccc(C(=O)Nc2nc(-c3ccccn3)cs2)cc1
max activity, negative = growth inhibition ([1]; at 19.5 µM): -34.8% (inactive)

CCOC(=O)N1C(=O)C2(CCCCC2)N(c2ccc(C)cc2)C1=S
max activity, negative = growth inhibition ([1]; at 0.08 µM): 13.5% (inactive)

CCCC(=O)NC(c1cccs1)c1cc(Cl)c2cccnc2c1O (centres undefined)
AC50 [2]: 3.27 µM

O=C(Oc1c(Cl)cc(Cl)c2cccnc12)c1ccco1
AC50 [2]: 1.14 µM

Oc1c(C(c2ccccc2Cl)N2CCCCC2)ccc2cccnc12 (centres undefined)
max activity, negative = growth inhibition ([1]; at 19.5 µM): -24.3% (inactive)

O=C(Nc1nc(-c2ccccc2)cs1)c1ccc(Br)s1
max activity, negative = growth inhibition ([1]; at 0.3 µM): 11.1% (inactive)

O=C(Nc1nnc(-c2ccc3c(c2)CCCC3)o1)c1ccccc1
max activity, negative = growth inhibition ([1]; at 2.6 µM): -10.5% (inactive)

C=CCNC(=S)N/N=C(\C)c1ccccn1
AC50 [2]: 6.14 µM

COc1ccc(-c2nnc(NC(=O)c3ccc(S(=O)(=O)N4CCCc5ccccc54)cc3)o2)cc1
max activity, negative = growth inhibition ([1]; at 0.3 µM): 12.6% (inactive)

Oc1c(C(c2ccc(Cl)cc2)N2CCCC2)ccc2cccnc12 (centres undefined)
max activity, negative = growth inhibition ([1]; at 1.2 µM): 12% (inactive)

CN1CCN(C(c2ccc(C(F)(F)F)cc2)c2ccc3cccnc3c2O)CC1 (centres undefined)
AC50 [2]: 2.18 µM

C/C(=N\NC(=O)c1cc2ccccc2cc1O)c1ccccn1
max activity, negative = growth inhibition ([1]; at 5 µM): 18.8% (inactive)

O=C(Nc1nc(-c2ccccn2)cs1)c1ccccc1
max activity, negative = growth inhibition ([1]; at 19.5 µM): -14.7% (inactive)

Oc1c(CN2CCc3ccccc3C2)cc(Cl)c2cccnc12
max activity, negative = growth inhibition ([1]; at 10 µM): 15.2% (inactive)

O=C(Nc1nc(-c2ccccn2)cs1)c1ccc(Br)s1
AC50 [2]: 8.64 µM

O=C(Nc1nc(-c2ccccn2)cs1)c1ccc(Cl)s1
AC50 [2]: 9.57 µM

O=C(Nc1nnc(-c2ccc3c(c2)CCCC3)o1)c1ccc(Cl)cc1Cl
max activity, negative = growth inhibition ([1]; at 0.16 µM): 21% (inactive)
